Converted amounts (≈) assume the structure as drawn. Like-named read-outs stand apart in the source and are kept apart here. Values belong to the compound of their own block, whether it stands above or below them.
Key:
[1] = Half-life (stability) in buffer solution; type: physicochemical; conditions: for half-life at 100 µM: 10^-4 M
Procedure: T1/2 =9.8 h (measured at a concentration of 10^-4 M in phosphate buffer pH 7.4 at 36.8° C.).
UV (phosphate buffer, pH 7.4) λmax 294 nm (ε=8,202); T1/2 (phosphate buffer, pH 7.4, M=0.967, T=37° C.) 9.1 h.
(c of 10^-4 M in pH 7.4 phosphate buffer.
.tau.1/2 =20.8 h measured at 37° C. in buffer (pG 7.4) for a concentration of 10^-4 M.
.tau.1/2 =12.5 h measured at 37° C. in buffer pH 7.4 for a concentration of 10^-4 M.
h (measured for a concentration of 10^-4 M at 36.8° C. in buffer pH 7.4).
.tau.1/2 =26.0 h (measured for a concentration of 10^-4 M at 36.8° C. in buffer pH 7.4).
.tau.1/2 =16.6 h (measured at 36.8° C., pH 7.4 for a concentration of 10^-4 M) and (5R, 6S) 6-(1R-hydroxyethyl)7-oxo-3-[1,2,6-trimethylpyridinium-4-yl)methylthio]-1-azabicyclo[3.2.0 hept-2-ene-2-carboxylate, 0.010 g, 0.7%;
.tau.1/2 =11.6 h (measured for a concentration of 10^-4 M at 36.8° C. in buffer pH 7.4).
.tau.1/2 =13.4 h (measured for a concentration of 10^-4 M at 36.8° C. in buffer pH 7.4).
.tau.1/2 =14.4 h (measured for a concentration of 10^-4 M at 36.8° C. in buffer pH 7.4).
T 1/2: 10.2 h (biological buffer).
.tau.1/2 =10.2 h measured at 36.8° C. for a concentration of 10^-4 M in buffer pH 7.4.

P. vulgaris A21559 = test: M.I.C., tube dilution; type: cell-based; conditions: Proteus vulgaris, A21559, overnight incubation at 37° C., Nutrient Broth; read-out: MIC
[2] = Blood levels in mice after intramuscular administration; conditions: mouse, blood, im, 20 mg/kg;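 note: compounds dissolved in 0.1 M phosphate buffer at pH 7, data from one experiment using four mice for each compound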
Description: Compounds were solubilized in 0.1 M phosphate buffer pH 7.
a single test; 4 mice used per compound.
Compounds were solubilized in 0.1 M phosphate buffer, pH 7.
on a single test; 4 mice per compound.

S. faecalis A20688 = test: M.I.C., tube dilution; type: cell-based; conditions: Enterococcus faecalis, A20688, overnight incubation at 37° C., Nutrient Broth; read-out: MIC
P. aeruginosa A21213 = test: M.I.C., tube dilution; type: cell-based; conditions: Pseudomonas aeruginosa
S. pyogenes A-9604 = test: M.I.C., tube dilution; type: cell-based; conditions: Streptococcus pyogenes, A9604; overnight incubation at 37° C., Nutrient Broth; read-out: MIC
S. pneumoniae A-9585 = test: M.I.C., tube dilution; type: cell-based; conditions: Streptococcus pneumoniae, A9585; overnight incubation at 37° C., Nutrient Broth; read-out: MIC
S. aureus A-9537 = test: M.I.C., tube dilution; type: cell-based; conditions: Staphylococcus aureus, A9537; +50% serum; read-out: MIC
[3] = (phosphate) buffer pH 7.4, 37° C., read-out: half-life in solution (converted)
[4] = (phosphate) buffer pH 7.4, 36.8° C., read-out: T1/2 (half-life in solution) (converted)
[5] = biological buffer, read-out: T 1/2 (half-life in solution) (converted)

half-life at 100 µM [1, 3]: 20.8 h
SMILES: Cc1cccc(CSC2=C(C(=O)[O-])N3C(=O)[C@H]([C@@H](C)O)C3[C@H]2C)[n+]1C (stereo in doubt) [Example 25, (5R,6S) 3-[(1,6-dimethylpyridinium-2-yl)methylthio]-6-(1R-hydroxyethyl)-4R-methyl-7-oxo-1-azabicyclo[3.2.0]hept-2-ene-2-carboxylate]

half-life at 100 µM [1, 4]: 27.8 h
SMILES: Cc1ccc(CSC2=C(C(=O)[O-])N3C(=O)[C@H]([C@@H](C)O)C3[C@H]2C)c[n+]1C (stereo in doubt) [Example 34, (5R,6S) 3-[(1,6-dimethylpyridinium-3-yl)methylthio]-6-(1R-hydroxyethyl)-4R-methyl-7-oxo-1-azabicyclo[3.2.0]hept-2-ene-2-carboxylate]

half-life at 100 µM [1, 4]: 26 h
SMILES: Cc1cc(CSC2=C(C(=O)[O-])N3C(=O)[C@H]([C@@H](C)O)C3[C@H]2C)c[n+](C)c1 (stereo in doubt) [Example 35, (5R,6S) 3-[(1,5-dimethylpyridinium-3-yl)methylthio]-6-(1R-hydroxyethyl)-4R-methyl-7-oxo-1-azabicyclo[3.2.0]hept-2-ene-2-carboxylate]

half-life at 100 µM ([1]; phosphate buffer, 36.7° C., read-out: t 1/2 (half-life in solution) (converted)): 22.3 h
SMILES: Cc1cc(C)[n+](C)c(CSC2=C(C(=O)[O-])N3C(=O)[C@H]([C@@H](C)O)C3[C@H]2C)c1 (stereo in doubt) [Example 51A, (5R,6S) 6-(1R-Hydroxyethyl)-4R-methyl-7-oxo-3-[(1,4,6-trimethylpyridinium-2-yl)-methylthio]-1-azabicyclo[3.2.0]hept-2-ene-2-carboxylate]

half-life at 100 µM [1, 4]: 29.8 h
SMILES: Cc1cc(CSC2=C(C(=O)[O-])N3C(=O)[C@H]([C@@H](C)O)C3[C@H]2C)cc(C)[n+]1C (stereo in doubt) [Example 51B, (5R,6S) 6-(1R-Hydroxyethyl)-4R-methyl-7-oxo-3-[(1,2,6-trimethylpyridinium-4-yl)-methylthio]-1-azabicyclo[3.2.0]hept-2-ene-2-carboxylate]

half-life at 100 µM [1, 3]: 19 h
SMILES: Cc1c(CSC2=C(C(=O)[O-])N3C(=O)[C@H]([C@@H](C)O)C3[C@H]2C)sc[n+]1C (stereo in doubt) [Example 54, (5R,6S) 3-[(3,4-Dimethylthiazolium-5-yl)methylthio]-6-(1'R-hydroxyethyl)-4R-methyl-7-oxo-1-azabicyclo[3.2.0]hept-2-ene-2-carboxylate]

half-life at 100 µM [1, 4]: 11.6 h
SMILES: Cc1cc(CSC2=C(C(=O)[O-])N3C(=O)[C@H]([C@@H](C)O)[C@H]3C2)cc(C)[n+]1C [(5R,6S) 6-(1R-hydroxyethyl)-7-oxo-3-[(1,2,6-trimethylpyridinium-4-yl)methylthio]-1-azabicyclo[3.2.0]hept-2-ene-2-carboxylate]

half-life at 100 µM [1, 4]: 16.6 h
SMILES: Cc1cc(C)[n+](C)c(CSC2=C(C(=O)[O-])N3C(=O)[C@H]([C@@H](C)O)[C@H]3C2)c1 [(5R,6S) 6-(1R-hydroxyethyl)-7-oxo-3-[(1,4,6-trimethylpyridinium-2-yl)methylthio]-1-azabicyclo[3.2.0]hept-2-ene-2-carboxylate]

MIC (P. vulgaris A21559): 0.03 µg/mL (≈ 0.0881 µM)
AUC [2]: 7400 ng·h/mL
Cmax [2]: 14900 ng/mL
half-life [2]: 0.183 h
MIC (S. faecalis A20688): 0.5 µg/mL (≈ 1.47 µM)
SMILES: C[C@@H](O)[C@H]1C(=O)N2C(C(=O)[O-])=C(SCc3scc[n+]3C)C[C@H]12 [Example 11, 3-[2-(N-Methylthiazolium)methylthio]-6α-[1-(R)-hydroxyethyl]-7-oxo-1-azabicyclo(3.2.0)hept-2-ene-2-carboxylate]

SMILES: C[C@@H](O)[C@H]1C(=O)N2C(C(=O)[O-])=C(SCc3n(Cc4ccccc4)cc[n+]3C)C[C@H]12 [Example 13, 3-(N Methyl-N'-benzylimidazole-2-yl-methanethio)-6α-[1-(R)-hydroxyethyl]-7-oxo-1-azabicyclo(3.2.0)hept-2-ene-2-carboxylate]
MIC (P. vulgaris A21559): 0.008 µg/mL (≈ 0.0193 µM)
AUC [2]: 6400 ng·h/mL
Cmax [2]: 14800 ng/mL
half-life [2]: 0.183 h
MIC (P. aeruginosa A21213; A21213, overnight incubation at 37° C., Nutrient Broth, read-out: MIC): 2 µg/mL (≈ 4.84 µM)
MIC (S. pyogenes A-9604): 0.0005 µg/mL (≈ 0.00121 µM)
MIC (S. pneumoniae A-9585): 0.0005 µg/mL (≈ 0.00121 µM)

SMILES: C[C@@H](O)[C@H]1C(=O)N2C(C(=O)[O-])=C(SCc3cs[n+](C)n3)C[C@H]12 [Example 16, (5R,6S) 6-(1R-hydroxyethyl)-3-(2-methyl-1,2,3-thiadiazolium-4-ylmethylthio)-7-oxo-1-azabicyclo[3.2.0]hept-2-ene-2-carboxylate]
MIC (P. vulgaris A21559): 0.03 µg/mL (≈ 0.0879 µM)
MIC (P. aeruginosa A21213; A21213): 0.13 µg/mL (≈ 0.381 µM)
MIC (S. faecalis A20688): 1 µg/mL (≈ 2.93 µM)
half-life at 100 µM [1, 4]: 9.8 h

SMILES: C[C@@H](O)[C@H]1C(=O)N2C(C(=O)[O-])=C(SCc3n(C)nc[n+]3C)C[C@H]12 [Example 19, 3-[5-(1,4-dimethyl-1,2,4-triazolium)-methanethio]-6α-[1-(R)-hydroxyethyl]-7-oxo-1-azabicyclo[3.2.0]hept-2-ene-2-carboxylate]
MIC (S. aureus A-9537): 0.008 µg/mL (≈ 0.0236 µM)
MIC (P. vulgaris A21559): 0.016 µg/mL (≈ 0.0473 µM)
AUC [2]: 15100 ng·h/mL
Cmax [2]: 27000 ng/mL
half-life [2]: 0.278 h
half-life ([1]; phosphate buffer, pH 7.4, M=0.967, T=37° C., read-out: T1/2 (half-life in solution) (converted)): 9.1 h

half-life at 100 µM [1, 3]: 12.5 h
SMILES: Cc1cccc(CSC2=C(C(=O)[O-])N3C(=O)[C@H]([C@@H](C)O)[C@H]3C2)[n+]1C [Example 26, (5R,6S) 3-[(1,6-dimethylpyridinium-2-yl)methylthio]-6-(1R-hydroxyethyl)-7-oxo-1-azabicyclo[3.2.0]hept-2-ene-2-carboxylate]

half-life at 100 µM [1, 4]: 13.4 h
SMILES: Cc1cc(CSC2=C(C(=O)[O-])N3C(=O)[C@H]([C@@H](C)O)[C@H]3C2)c[n+](C)c1 [Example 37]

half-life at 100 µM [1, 4]: 14.4 h
SMILES: Cc1ccc(CSC2=C(C(=O)[O-])N3C(=O)[C@H]([C@@H](C)O)[C@H]3C2)c[n+]1C [Example 38, (5R,6S) 3-[(1,6-dimethylpyridinium-3-yl)methylthio]-6-(1R-hydroxyethyl)-7-oxo-1-azabicyclo[3.2.0]hept-2-ene-2-carboxylate]

half-life [1, 5]: 10.2 h
SMILES: C[C@@H](O)[C@H]1C(=O)N2C(C(=O)[O-])=C(SCc3cncc[n+]3C)C[C@H]12 [Example 45, (5R,6S)-6-(1R-Hydroxyethyl)-3-[(1-methyl-1,4-pyraziinium-2-yl)methylthio]-7-oxo-1-azabicyclo(3.2.0)-hept-2-ene-2-carboxylate]

half-life ([1]; biological buffer, unit inferred, read-out: T1/2 (half-life in solution) (converted)): 12.3 h
SMILES: C[C@@H](O)[C@H]1C(=O)N2C(C(=O)[O-])=C(SCc3cncc[n+]3C)[C@H](C)[C@H]12 [Example 46, (5R,6S)-6-(1R-Hydroxyethyl)-4R-methyl-3-[(1-methyl-1,4-pyrazinium-2-yl)-methylthio]-7-oxo-1-azabicyclo[3.2.0]-hept-2-ene-2-carboxylate]

half-life [1, 5]: 15.2 h
SMILES: C[C@@H](O)[C@H]1C(=O)N2C(C(=O)[O-])=C(SCc3cn(C)[n+](C)c3)C[C@H]12 [Example 47]

half-life at 100 µM ([1]; pH 7.4 phosphate buffer, temperature not given, read-out: half-life in solution (converted)): 11 h
SMILES: Cc1c(CSC2=C(C(=O)[O-])N3C(=O)[C@H]([C@@H](C)O)[C@H]3C2)sc[n+]1C [Example 50]

half-life at 100 µM [1, 4]: 9.9 h
SMILES: COCC[n+]1ccccc1CSC1=C(C(=O)[O-])N2C(=O)[C@H]([C@@H](C)O)[C@H]2C1 [Example 52, (5R,6S) 6-(1R-hydroxyethyl)-3-[{1-(2-methoxyethyl)pyridinium-2-yl}methylthio]-7-oxo-1-azabicyclo[3.2.0]hept-2-ene-2-carboxylate]

half-life at 100 µM [1, 4]: 10.2 h
SMILES: C#CCC[n+]1ccccc1CSC1=C(C(=O)[O-])N2C(=O)[C@H]([C@@H](C)O)[C@H]2C1 [Example 53, (5R,6S) 3[(1-{but-3-yn-1-ylpyridinium-2-yl)}methylthio]-6-(1R-hydroxyethyl)-7-oxo-1-azabicyclo[3.2.0]hept-2-ene-2-carboxylate]
